Experiment in all cases: Antibacterial activity test (agar dilution MIC)
Assay type in all cases: cell-based
On the technique in general: In agar dilution, organisms are placed on agar that contains the substance at set levels.

Experiment [1] relates to Staphylococcus aureus 285. The conditions noted are these: Staphylococcus aureus 285, agar. On the procedure: (§1) Gram-positive Streptococcus and Staphylococcus and Gram-negative Escherichia coli, Pseudomonas, Salmonella, Klebsiella and Enterobacter were selected for the test. After the cells were diluted and cultured in agar, the compounds of the present invention were treated to obtain the minimum inhibitory concentration in the units of μg/ml.

Experiment [2] deals with Streptococcus faecium MD8b. As for the experimental part:
as §1

The subject of another experiment is Escherichia coli 078. The conditions noted are these: Escherichia coli 078, agar. On the procedure:
as §1

The test system of a further experiment is Escherichia coli 1507E. On the procedure:
as §1

Experiment [3] deals with Pseudomonas aeruginosa 1592E. As for the experimental part: as §1
The next experiment deals with Klebsiella oxytoca 1082E. On the procedure:
as §1

For experiment [4], the system named is Streptococcus pyogenes 77A. As for the experimental part:
as §1

The subject of experiment [5] is Pseudomonas aeruginosa 1771. Particulars: Pseudomonas aeruginosa 1771, agar. As for the experimental part: as §1
The subject of the next experiment is Escherichia coli DC0. On the procedure:
as §1

Experiment [6] deals with Streptococcus pyogenes 308A. As for the experimental part: as §1
Experiment [7] concerns Klebsiella aerogenes 1522E. On the procedure: as §1
Experiment [8] concerns Enterobacter cloacae 1321E. As for the experimental part:
as §1

The next experiment relates to Escherichia coli DC2. As for the experimental part: as §1
Experiment [9] concerns Staphylococcus aureus 503. Particulars: Staphylococcus aureus 503, agar. As for the experimental part: as §1
A further experiment concerns Enterobacter cloacae P99. On the procedure: as §1
Another experiment has as its system Escherichia coli TEM. The conditions noted are these: for Minimum inhibitory concentration: Escherichia coli TEM, agar. On the procedure:
as §1

For the next experiment, the system named is Salmonella typhimurium. As for the experimental part:
as §1

The subject of experiment [10] is Pseudomonas aeruginosa 9027. The conditions noted are these: Pseudomonas aeruginosa 9027, agar. On the procedure:
as §1

Experiment [11] relates to Staphylococcus aureus SG511. As for the experimental part: as §1
The test system of experiment [12] is Pseudomonas aeruginosa 1771M. As for the experimental part: as §1
[13] abbreviates: read-out: Minimum inhibitory concentration.

In brackets after ≈: the same amount, converted by molar mass.

For the compound `C[C@@H](O)[C@H]1C(=O)N2C(C(=O)O)=C(S[C@@H]3CN[C@H](C(=O)NCCS(=O)(=O)NCCO)C3)[C@H](C)[C@H]12` [Compound 13], the Minimum inhibitory concentration is 0.195 µg/mL (≈ 0.385 µM) in experiment [1]; 12.5 µg/mL (≈ 24.7 µM) in [2]; 0.013 µg/mL (≈ 0.0257 µM) in the experiment with Escherichia coli 078; 0.025 µg/mL (≈ 0.0493 µM) with Escherichia coli 1507E; 1.563 µg/mL (≈ 3.09 µM) in experiment [3]; 0.049 µg/mL (≈ 0.0967 µM) in the experiment with Klebsiella oxytoca 1082E. Besides, the Minimum inhibitory concentration in experiment [4] is 0.007 µg/mL (≈ 0.0138 µM); in [5] it was 1.563 µg/mL (≈ 3.09 µM); in the experiment on Escherichia coli DC0, 0.025 µg/mL (≈ 0.0493 µM); in experiment [6], 0.013 µg/mL (≈ 0.0257 µM); in experiment [7] it was 0.025 µg/mL (≈ 0.0493 µM); in experiment [8], 0.013 µg/mL (≈ 0.0257 µM). Besides, the Minimum inhibitory concentration in the experiment on Escherichia coli DC2 was 0.025 µg/mL (≈ 0.0493 µM); in [9], 0.098 µg/mL (≈ 0.193 µM); with Enterobacter cloacae P99 it was 0.049 µg/mL (≈ 0.0967 µM); in the experiment on Escherichia coli TEM, 0.013 µg/mL (≈ 0.0257 µM); with Salmonella typhimurium it was 0.025 µg/mL (≈ 0.0493 µM); in [10], 1.563 µg/mL (≈ 3.09 µM). Moreover, the Minimum inhibitory concentration came out at 0.195 µg/mL (≈ 0.385 µM) in [11] and 0.391 µg/mL (≈ 0.772 µM) in experiment [12] (Pseudomonas aeruginosa 1771M, agar).
As for `C[C@@H](O)[C@H]1C(=O)N2C(C(=O)O)=C(S[C@@H]3CN[C@H](C(=O)NCCC(=O)NCCO)C3)[C@H](C)[C@H]12` [Compound 3], the Minimum inhibitory concentration in experiment [1] came to 0.391 µg/mL (≈ 0.831 µM); in experiment [2], 12.5 µg/mL (≈ 26.6 µM); in the experiment on Escherichia coli 078 it was 0.025 µg/mL (≈ 0.0531 µM); in the experiment on Escherichia coli 1507E, 0.025 µg/mL (≈ 0.0531 µM); in experiment [3] it was 1.563 µg/mL (≈ 3.32 µM); in the experiment on Klebsiella oxytoca 1082E, 0.098 µg/mL (≈ 0.208 µM). Also, the Minimum inhibitory concentration was 0.007 µg/mL (≈ 0.0149 µM) in experiment [4]; 1.563 µg/mL (≈ 3.32 µM) in experiment [5]; 0.049 µg/mL (≈ 0.104 µM) in the experiment on Escherichia coli DC0; 0.013 µg/mL (≈ 0.0276 µM) in [6]; 0.049 µg/mL (≈ 0.104 µM) in experiment [7]; 0.025 µg/mL (≈ 0.0531 µM) in [8]. Moreover, the Minimum inhibitory concentration in the experiment with Escherichia coli DC2 was found to be 0.049 µg/mL (≈ 0.104 µM); in experiment [9] it was 0.195 µg/mL (≈ 0.414 µM); in the experiment with Enterobacter cloacae P99 it was 0.049 µg/mL (≈ 0.104 µM); with Escherichia coli TEM it was 0.025 µg/mL (≈ 0.0531 µM); with Salmonella typhimurium it was 0.049 µg/mL (≈ 0.104 µM); in [10], 1.563 µg/mL (≈ 3.32 µM). In experiment [11], the Minimum inhibitory concentration was 0.195 µg/mL (≈ 0.414 µM).
Turning to `C[C@@H](O)[C@H]1C(=O)N2C(C(=O)O)=C(S[C@@H]3CN[C@H](C(=O)NCCS(=O)(=O)N4CCCC4)C3)[C@H](C)[C@H]12` [Compound 15], the Minimum inhibitory concentration in experiment [1] is 0.195 µg/mL (≈ 0.377 µM); in experiment [2], 12.5 µg/mL (≈ 24.2 µM); with Escherichia coli 078, 0.025 µg/mL (≈ 0.0484 µM); in the experiment on Escherichia coli 1507E it was 0.025 µg/mL (≈ 0.0484 µM); in [3], 0.391 µg/mL (≈ 0.757 µM); in the experiment on Klebsiella oxytoca 1082E it was 0.098 µg/mL (≈ 0.19 µM). For the same compound, the Minimum inhibitory concentration in experiment [4] worked out at 0.007 µg/mL (≈ 0.0135 µM); in [5] it was 0.781 µg/mL (≈ 1.51 µM); with Escherichia coli DC0, 0.025 µg/mL (≈ 0.0484 µM); in [6] it was 0.013 µg/mL (≈ 0.0252 µM); in experiment [7], 0.049 µg/mL (≈ 0.0948 µM); in [8] it was 0.025 µg/mL (≈ 0.0484 µM). The Minimum inhibitory concentration was 0.049 µg/mL (≈ 0.0948 µM) in the experiment on Escherichia coli DC2; 0.195 µg/mL (≈ 0.377 µM) in experiment [9]; 0.049 µg/mL (≈ 0.0948 µM) in the experiment with Enterobacter cloacae P99; 0.025 µg/mL (≈ 0.0484 µM) with Escherichia coli TEM; 0.049 µg/mL (≈ 0.0948 µM) in the experiment on Salmonella typhimurium; 0.391 µg/mL (≈ 0.757 µM) in experiment [10]. The Minimum inhibitory concentration in [11] worked out at 0.195 µg/mL (≈ 0.377 µM).
Turning to `CNS(=O)(=O)CCNC(=O)[C@@H]1C[C@H](SC2=C(C(=O)O)N3C(=O)[C@H]([C@@H](C)O)[C@H]3[C@H]2C)CN1` [Compound 11], the MIC was 0.195 µg/mL (≈ 0.409 µM) in experiment [1] (setting [13]); 6.25 µg/mL (≈ 13.1 µM) in experiment [2] (Enterococcus faecium, read-out: Minimum inhibitory concentration); 0.025 µg/mL (≈ 0.0525 µM) in the experiment on Escherichia coli 078 (setting [13]); 0.013 µg/mL (≈ 0.0273 µM) in the experiment with Escherichia coli 1507E (setting [13]); 0.195 µg/mL (≈ 0.409 µM) in experiment [3] (setting [13]); 0.049 µg/mL (≈ 0.103 µM) in the experiment with Klebsiella oxytoca 1082E (setting [13]). The MIC stood at 0.004 µg/mL (≈ 0.00839 µM) in [4] (setting [13]); 0.195 µg/mL (≈ 0.409 µM) in [5] (setting [13]); 0.025 µg/mL (≈ 0.0525 µM) in the experiment with Escherichia coli DC0 (setting [13]); 0.013 µg/mL (≈ 0.0273 µM) in experiment [6] (setting [13]); 0.049 µg/mL (≈ 0.103 µM) in experiment [7] (setting [13]); 0.025 µg/mL (≈ 0.0525 µM) in experiment [8] (setting [13]). The MIC is 0.025 µg/mL (≈ 0.0525 µM) in the experiment with Escherichia coli DC2 (setting [13]); 0.098 µg/mL (≈ 0.206 µM) in [9] (setting [13]); 0.049 µg/mL (≈ 0.103 µM) in the experiment with Enterobacter cloacae P99 (setting [13]); 0.013 µg/mL (≈ 0.0273 µM) with Escherichia coli TEM (Escherichia coli, read-out: Minimum inhibitory concentration); 0.025 µg/mL (≈ 0.0525 µM) in the experiment on Salmonella typhimurium (Salmonella enterica, read-out: Minimum inhibitory concentration); 0.391 µg/mL (≈ 0.82 µM) in experiment [10] (setting [13]). For the same compound, the MIC stood at 0.098 µg/mL (≈ 0.206 µM) in [11] (setting [13]) and 0.195 µg/mL (≈ 0.409 µM) in experiment [12] (Pseudomonas aeruginosa, 1771M, read-out: Minimum inhibitory concentration).

The values above are taken from patent US6436921B1, “Carbapenem derivatives and a preparation method thereof” (Korea Institute of Science and Technology, priority 1997, dated 2002).
